In ChEMBL document CHEMBL1151536, “Biaryl substituted alkylboronate esters as thrombin inhibitors” (Bioorg Med Chem Lett, 1997):

Legend:
[1] = molecular target: Serine protease 1 (Homo sapiens, UniProt P07477); assay: Inhibition of trypsin
[2] = molecular target: Prothrombin (Homo sapiens, UniProt P00734); assay: Inhibition of thrombin; design: species or system Oryctolagus cuniculus
[3] = In vitro inhibitory concentration expressed as thrombin time of the compound; format: functional

Chain of Serine protease 1 (P07477 whole entry): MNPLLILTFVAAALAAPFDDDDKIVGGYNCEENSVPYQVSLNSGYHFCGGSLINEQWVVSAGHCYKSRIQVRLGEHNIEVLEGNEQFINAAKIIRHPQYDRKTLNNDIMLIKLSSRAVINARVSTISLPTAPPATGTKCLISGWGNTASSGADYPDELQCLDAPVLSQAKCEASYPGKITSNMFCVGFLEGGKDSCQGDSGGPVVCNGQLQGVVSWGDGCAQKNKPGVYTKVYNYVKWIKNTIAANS

Ki [1] | Ki [2] | IC50 [3] | SMILES
4.8 nM | 4.9 nM | – | CC1(C)C2CC1[C@]1(C)OB([C@H](CCCN=C(N)N)NC(=O)c3ccc(-c4ccccc4)c([N+](=O)[O-])c3)O[C@@H]1C2 (some centres not stated)
33 nM | 0.94 nM | – | CC1(C)C2CC1[C@]1(C)OB([C@H](CCCN=C(N)N)NC(=O)c3ccc(-c4ccccc4)cc3)O[C@@H]1C2 (some centres not stated)
4.7 nM | 5.5 nM | – | CC1(C)C2CC1[C@]1(C)OB([C@H](CCCN=C(N)N)NC(=O)c3ccc(-c4ccccc4)c(N)c3)O[C@@H]1C2 (some centres not stated)
4.2 nM | 0.42 nM | 600 nM | Cc1cc(-c2ccccc2)ccc1C(=O)N[C@@H](CCCN=C(N)N)B1O[C@@H]2CC3CC(C3(C)C)[C@]2(C)O1 (some centres not stated)
7.4 nM | 110 nM | – | CC1(C)C2CC1[C@]1(C)OB([C@H](CCCNC(=N)N)NC(=O)c3cccc(-c4ccccc4)c3)O[C@@H]1C2 (some centres not stated)
– | 10 nM | – | Cc1nc(-c2ccccc2)ncc1C(=O)N[C@@H](CCCN=C(N)N)B1O[C@@H]2CC3CC(C3(C)C)[C@]2(C)O1 (some centres not stated)
35 nM | 8.3 nM | – | CC(C)(C)OC(=O)Nc1cccc(-c2cccc(C(=O)N[C@@H](CCCN=C(N)N)B3O[C@@H]4CC5CC(C5(C)C)[C@]4(C)O3)c2)c1 (some centres not stated)
– | 1.2 nM | – | CC1(C)C2CC1[C@]1(C)OB([C@H](CCCN=C(N)N)NC(=O)c3ccc(-c4ccccc4)cc3F)O[C@@H]1C2 (some centres not stated)
5.3 nM | 1.3 nM | – | CC1(C)C2CC1[C@]1(C)OB([C@H](CCCN=C(N)N)NC(=O)c3ccc(-c4ccccc4)cc3N)O[C@@H]1C2 (some centres not stated)
– | 4.7 nM | – | CC1(C)C2CC1[C@]1(C)OB([C@H](CCCN=C(N)N)NC(=O)c3ccc(-c4ccccc4)cc3[N+](=O)[O-])O[C@@H]1C2 (some centres not stated)
3.1 nM | 0.46 nM | – | Cc1cc(-c2ccccc2C(F)(F)F)ccc1C(=O)N[C@@H](CCCN=C(N)N)B1O[C@@H]2CC3CC(C3(C)C)[C@]2(C)O1 (some centres not stated)
0.11 nM | 0.92 nM | 110 nM | Cc1cc(-c2ccccc2S(N)(=O)=O)ccc1C(=O)N[C@@H](CCCN=C(N)N)B1O[C@@H]2CC3CC(C3(C)C)[C@]2(C)O1 (some centres not stated)
– | 6.9 nM | – | CC1(C)C2CC1[C@]1(C)OB([C@H](CCCN=C(N)N)NC(=O)Cc3ccc(-c4ccccc4)cc3)O[C@@H]1C2 (some centres not stated)

More lines, now with the values behind:

SMILES | Ki [1] | Ki [2] | IC50 [3]
N=C(N)NCCC[C@H](NC(=O)c1ccc(-c2ccccc2)cc1)B(O)O | – | 1.7 nM | –
CC(C)(C)OC(=O)Nc1cccc(-c2ccc(C(=O)N[C@@H](CCCNC(=N)N)B3O[C@@H]4CC5CC(C5(C)C)[C@]4(C)O3)s2)c1 (some centres not stated) | 13 nM | 42 nM | –
COC(=O)NS(=O)(=O)c1ccccc1-c1ccc(C(=O)N[C@@H](CCCN=C(N)N)B2O[C@@H]3CC4CC(C4(C)C)[C@]3(C)O2)c(C)c1 (some centres not stated) | 0.64 nM | 1.1 nM | 225 nM
Cc1nc(-c2ccccc2)ccc1C(=O)N[C@@H](CCCCN)B1O[C@@H]2CC3CC(C3(C)C)[C@]2(C)O1 (some centres not stated) | – | 580 nM | –
Cc1nc(-c2ccccc2)ncc1C(=O)N[C@@H](CCCCN)B1O[C@@H]2CC3CC(C3(C)C)[C@]2(C)O1 (some centres not stated) | – | 410 nM | –
CCN(CC)S(=O)(=O)c1ccccc1-c1ccc(C(=O)N[C@@H](CCCNC(=N)N)B2O[C@@H]3CC4CC(C4(C)C)[C@]3(C)O2)c(C)c1 (some centres not stated) | 0.62 nM | 0.36 nM | –
CC(=O)N[C@H](Cc1ccccc1)C(=O)N1CCC[C@H]1C(=O)N[C@@H](CCCN=C(N)N)B(O)O | – | – | 55 nM
CC(C)(C)OC(=O)Nc1cccc(-c2ccc(C(=O)N[C@@H](CCCN=C(N)N)B3O[C@@H]4CC5CC(C5(C)C)[C@]4(C)O3)o2)c1 (some centres not stated) | 25 nM | 30 nM | –
CC1(C)C2CC1[C@]1(C)OB([C@H](CCCNC(=N)N)NC(=O)c3ccc(-c4ccccc4)o3)O[C@@H]1C2 (some centres not stated) | – | 137 nM | –
CC1(C)C2CC1[C@]1(C)OB([C@H](CCCNC(=N)N)NC(=O)c3ccc(-c4ccncc4)cc3)O[C@@H]1C2 (some centres not stated) | – | 19 nM | –
Cc1cc(-c2ccccc2S(=O)(=O)NC(C)(C)C)ccc1C(=O)N[C@@H](CCCN=C(N)N)B1O[C@@H]2CC3CC(C3(C)C)[C@]2(C)O1 (some centres not stated) | 0.7 nM | 0.21 nM | 140 nM
CC1(C)OB([C@H](CCCNC(=N)N)NC(=O)c2ccccc2)OC1(C)C | 70 nM | 512 nM | –
Cc1cc(-c2ccccc2)ccc1C(=O)N[C@@H](CCCCN)B1O[C@@H]2CC3CC(C3(C)C)[C@]2(C)O1 (some centres not stated) | – | 26 nM | –
CC1(C)C2CC1[C@]1(C)OB([C@H](CCCNC(=N)N)NC(=O)c3cccc(-c4cccc(NS(C)(=O)=O)c4)c3)O[C@@H]1C2 (some centres not stated) | 3.8 nM | 3.5 nM | –
